Measured values taken from patent US5484772A, “Antithrombotic agents” (Eli Lilly and Company, priority 1994, dated 1996).

What was measured:
Format in all cases: biochemical
t-PA = molecular target: T1, t-PA (Homo sapiens, UniProt P00750); experiment: t-PA amidase inhibition, chromogenic substrate (Kass); conditions: apparent association constant; Hydrochloride
T1 construct: purchased American Diagnostica, Greenwich, Conn

Human plasma [1] = experiment: Human plasma anticoagulation, thrombin time (TT); conditions: concentration required to double thrombin time, linear extrapolation, Hydrochloride
Experimental: (§1) Dog plasma and rat plasma are obtained from conscious mixed-breed hounds (either sex, hazelton-LRE, Kalamazoo, Mich., U.S.A.) or from anesthetized male Sprague-Dawley rats (Harlan Sprague-Dawley, Inc., Indianapolis, Ind., U.S.A.) by venipuncture into 3.8 percent citrate. Fibrinogen is prepared from in-date ACD human blood as the fraction I-2 according to previous procedures and specifications. Smith, Blochem. J., 185, 1-11 (1980); and Smith, et al., Biochemistry, 11, 2958-2967 (1972). Human fibrinogen is also purchased as 98 percent pure/plasmin free from American Diagnostica, Greenwich, Conn. Coagulation reagents ACTIN, Thromboplastin, and Human plasma are from Baxter Healthcare Corp., Dade Division, Miami, Fla. Bovine thrombin from Parke-Davis (Ann Arbor, Mich.) is used for coagulation assays in plasma.
(§2) Coagulation assay procedures are as previously described. Smith, et al., Thrombosis Research, 50, 163-174 (1988). […] The prothrombin time (PT) is measured by adding 0.05 ml saline and 0.05 ml Thromboplastin-C reagent to 0.05 ml test plasma. The activated partial thromboplastin time (APTT) is measured by incubation of 0.05 ml test plasma with 0.05 ml Actin reagent for 120 seconds followed by 0.05 ml CaCl2 (0.02M). The thrombin time (TT) is measured by adding 0.05 ml saline and 0.05 ml thrombin (10 NIH units/ml) to 0.05 ml test plasma. […]

Human plasma [2] = experiment: Human plasma anticoagulation, prothrombin time (PT); conditions: concentration required to double PT, linear extrapolation, Hydrochloride
Experimental: as §1, §2

human thrombin = human thrombin (Homo sapiens, UniProt P00734); experiment: Thrombin amidase inhibition, chromogenic substrate (Kass); conditions: apparent association constant, mean over a range of concentrations; Hydrochloride
Experimental: The assay is carried out by mixing 50 μl buffer (0.03M Tris, 0.15M NaCl, pH 7.4), 25 μl of human thrombin solution (purified human thrombin, Enzyme Research Laboratories, South Bend, Ind., at 8 NIH units/ml) and 25 μl of test compound in a solvent (in 50% aqueous methanol, v:v). Then 150 μl of an aqueous solution of the chromogenic substrate (at 0.25 mg/ml) are added and the rates of hydrolysis of the substrate are measured by monitoring the reactions at 405 nm for the release of p-nitroaniline. Standard curves are constructed by plotting free thrombin concentration against hydrolysis rate. The hydrolysis rates observed with test compounds are then converted to free thrombin values in the respective assays by use of the standard curves. The bound thrombin (bound to test compound) is calculated by subtracting the amount of free thrombin observed in each assay from the known initial amount of thrombin used in the assay. The amount of free inhibitor in each assay is calculated by subtracting the number of moles of bound thrombin from the number of moles of added inhibitor (test compound).
The Kass value is the hypothetical equilibrium constant for the reaction between thrombin and the test compound (I). [formula] Kass is calculated for a range of concentrations of test compounds and the mean value is reported in units of liter per mole.

Human plasmin = molecular target: T2, Human plasmin (Homo sapiens, UniProt P00747); experiment: Plasmin amidase inhibition, chromogenic substrate (Kass); conditions: apparent association constant; Hydrochloride
T2 construct: Human plasmin is purchased from Boehringer Mannheim; purchased Boehringer Mannheim, Indianapolis, Ind

Human factor Xa = molecular target: T3, Human factor Xa (Homo sapiens, UniProt P00742); experiment: Factor Xa amidase inhibition, chromogenic substrate (Kass); conditions: apparent association constant; Hydrochloride
T3 construct: Human factors X, Xa, IXa, XIa, and XIIa are purchased; purchased Enzyme Research Laboratories, South Bend, Ind

Bovine trypsin = molecular target: T4, Bovine trypsin (Bos taurus, UniProt P00760); experiment: Trypsin amidase inhibition, chromogenic substrate (Kass); conditions: apparent association constant; Hydrochloride
T4 construct: purchased Worthington Biochemicals, Freehold, N.J
T4 sequence (P00760 24-246): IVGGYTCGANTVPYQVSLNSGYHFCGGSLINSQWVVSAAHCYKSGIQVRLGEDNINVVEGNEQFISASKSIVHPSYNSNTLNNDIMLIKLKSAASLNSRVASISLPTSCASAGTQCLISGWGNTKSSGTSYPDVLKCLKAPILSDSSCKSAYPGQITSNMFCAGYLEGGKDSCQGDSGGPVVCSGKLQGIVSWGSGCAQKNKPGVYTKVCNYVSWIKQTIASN

Human plasma [3] = experiment: Human plasma anticoagulation, activated partial thromboplastin time (APTT); conditions: concentration required to double APTT, linear extrapolation, Hydrochloride
Experimental: as §1, §2

T1 sequence (P00750 36-562): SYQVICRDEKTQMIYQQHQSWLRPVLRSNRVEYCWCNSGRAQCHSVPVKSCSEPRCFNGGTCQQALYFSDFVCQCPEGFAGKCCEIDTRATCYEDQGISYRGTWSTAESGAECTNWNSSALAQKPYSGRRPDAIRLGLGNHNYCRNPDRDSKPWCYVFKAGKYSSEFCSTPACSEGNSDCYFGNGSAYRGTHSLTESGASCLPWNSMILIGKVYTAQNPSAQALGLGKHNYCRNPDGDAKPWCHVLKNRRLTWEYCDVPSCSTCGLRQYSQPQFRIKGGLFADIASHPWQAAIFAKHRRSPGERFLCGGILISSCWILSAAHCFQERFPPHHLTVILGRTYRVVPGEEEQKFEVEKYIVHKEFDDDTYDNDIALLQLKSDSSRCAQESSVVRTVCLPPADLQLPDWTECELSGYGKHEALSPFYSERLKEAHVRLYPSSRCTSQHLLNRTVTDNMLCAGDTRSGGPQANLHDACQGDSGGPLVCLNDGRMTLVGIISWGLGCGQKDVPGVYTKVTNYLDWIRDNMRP
T3 sequence (P00742 235-488 limits assumed): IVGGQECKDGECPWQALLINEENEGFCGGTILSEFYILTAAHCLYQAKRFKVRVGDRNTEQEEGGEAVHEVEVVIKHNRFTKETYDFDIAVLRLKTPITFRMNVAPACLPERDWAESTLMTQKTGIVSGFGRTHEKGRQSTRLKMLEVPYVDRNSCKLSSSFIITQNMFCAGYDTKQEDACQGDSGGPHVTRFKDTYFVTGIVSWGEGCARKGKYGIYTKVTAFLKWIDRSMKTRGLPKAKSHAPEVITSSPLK
T3 sequence (P00742 41-179 limits assumed): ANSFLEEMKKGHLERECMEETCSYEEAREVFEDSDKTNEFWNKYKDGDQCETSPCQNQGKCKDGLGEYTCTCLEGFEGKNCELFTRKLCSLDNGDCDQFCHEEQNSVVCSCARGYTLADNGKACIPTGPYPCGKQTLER
T2 sequence (P00747 581-810 limits assumed): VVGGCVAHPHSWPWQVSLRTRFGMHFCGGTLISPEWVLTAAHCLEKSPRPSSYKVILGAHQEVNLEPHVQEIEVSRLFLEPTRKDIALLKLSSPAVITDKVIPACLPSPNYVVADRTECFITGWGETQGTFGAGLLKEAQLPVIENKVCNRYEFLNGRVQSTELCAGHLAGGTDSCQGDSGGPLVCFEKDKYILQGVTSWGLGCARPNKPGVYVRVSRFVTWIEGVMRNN
T2 sequence (P00747 97-580 limits assumed): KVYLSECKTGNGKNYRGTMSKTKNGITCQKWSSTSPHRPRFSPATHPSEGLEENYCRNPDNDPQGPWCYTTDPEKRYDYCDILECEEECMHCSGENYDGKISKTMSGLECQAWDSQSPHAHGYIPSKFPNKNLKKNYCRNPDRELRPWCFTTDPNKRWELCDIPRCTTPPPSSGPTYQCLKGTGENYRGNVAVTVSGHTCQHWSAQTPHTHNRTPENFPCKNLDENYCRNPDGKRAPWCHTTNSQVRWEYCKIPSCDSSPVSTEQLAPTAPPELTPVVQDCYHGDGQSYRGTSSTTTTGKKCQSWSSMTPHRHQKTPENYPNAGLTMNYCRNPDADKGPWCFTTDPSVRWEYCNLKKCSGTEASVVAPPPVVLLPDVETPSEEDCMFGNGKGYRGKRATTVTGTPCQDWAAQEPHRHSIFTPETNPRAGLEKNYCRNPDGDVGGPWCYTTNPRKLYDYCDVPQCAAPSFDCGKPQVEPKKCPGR

Row | Compound | Kass t-PA (t-PA) | 2 × Clotting time TT (Human plasma [1]) | 2 × Clotting time PT (Human plasma [2]) | Kass Human Thrombin (human thrombin) | Kass Plasmin (Human plasmin) | Kass Xa (Human factor Xa) | Kass Trypsin (Bovine trypsin) | 2 × Clotting time APTT (Human plasma [3])
1 | CCOC(=O)NC(CC)(Cc1ccccc1)C(=O)N1CCC[C@H]1C(=O)N[C@H](C=O)CCCNC(=N)N.Cl (stereo partly drawn) [Example 13, N-Ethoxycarbonyl-L-phenylalanyl (αethyl)-L-prolinyl-L-arginine Aldehyde Hydrochloride] | 0.002 L/mol × 10^6 | 93 ng/mL | 3,300 ng/mL | 57 L/mol × 10^6 | 0.12 L/mol × 10^6 | 0.036 L/mol × 10^6 | 4.9 L/mol × 10^6 | –
2 | CCOC(=O)N[C@@H](Cc1ccccc1)C(=O)N1CCC[C@@]1(C)C(=O)N[C@H](C=O)CCCNC(=N)N.Cl [Example 5, N-Ethoxycarbonyl-L-phenylalanyl (αmethyl)-L-prolinyl-L-arginine Aldehyde Hydrochloride] | 0.00079 L/mol × 10^6 | 48 ng/mL | 2,200 ng/mL | 75 L/mol × 10^6 | 0.059 L/mol × 10^6 | 0.044 L/mol × 10^6 | 2.4 L/mol × 10^6 | 2,500 ng/mL
